Measurements: patent publication EP4729529A1, “PREPARATION OF PEPTIDE INHIBITOR OF INTERLEUKIN-23 RECEPTOR AND USE THEREOF” (Xizang Haisco Pharmaceutical Co., Ltd., priority 2023, dated 2024)
Starred links: 1 amine or outer side, 2 acyl side, 3 side chain; linkers in the order of their positions; H or OH if unused. Positions of bridges follow the written chain, without caps; N, C: chain ends. Non-standard residues stand in square brackets, D forms with d. Residues, ends and D or L forms follow the SMILES beside them. Groups on a side chain read outwards from the residue. *: point of attachment. Phe(4-OC2H4NH2,2,3-(CH2)3) = NCCOc1ccc(C[C@H](N)C(=O)O)c2c1CCC2; Trp(7-cPr) = N[C@@H](Cc1c[nH]c2c(C3CC3)cccc12)C(=O)O; Trp(7-Me) = Cc1cccc2c(C[C@H](N)C(=O)O)c[nH]c12; C18 diacid = O=C(O)CCCCCCCCCCCCCCCCC(=O)*; γGlu = O=C(O)[C@H](CCC(=O)[*:2])N[*:1]; 2Nal = N[C@@H](Cc1ccc2ccccc2c1)C(=O)O; TBMB = c1c(C[*:1])cc(C[*:3])cc1C[*:2]; X1 = O=C(C(N[*:1])C1(S[*:3])CC1)[*:2]; X3 = C(c1nc(C[*:2])nc(C[*:3])n1)[*:1]; Thp(SO2) = NC1(C(=O)O)CCS(=O)(=O)CC1; mXylylene = c1cc(C[*:1])cc(C[*:2])c1; oXylylene = c1ccc(C[*:2])c(C[*:1])c1; AEF = NCCOc1ccc(C[C@H](N)C(=O)O)cc1; 3Pal = N[C@@H](Cc1cccnc1)C(=O)O; X5 = COCCOCCOCCOCCOCCOCC(=O)*; Pen = CC(C)(S)[C@H](N)C(=O)O; Thp = NC1(C(=O)O)CCOCC1; Dap = NC[C@H](N)C(=O)O; AEEA = NCCOCCOCC(=O)O; CO = O=C([*:1])[*:2]; Sar = CNCC(=O)O

Biological target: T1, IL-23α/IL-12β and IL-23R (Homo sapiens, UniProt Q5VWK5)
T1 construct: purchased ACRO ILR-H82F3 (IL-23R); ILB-H52W5 (IL-23α/IL-12β)
T1 sequence (Q5VWK5 24-353 limits assumed): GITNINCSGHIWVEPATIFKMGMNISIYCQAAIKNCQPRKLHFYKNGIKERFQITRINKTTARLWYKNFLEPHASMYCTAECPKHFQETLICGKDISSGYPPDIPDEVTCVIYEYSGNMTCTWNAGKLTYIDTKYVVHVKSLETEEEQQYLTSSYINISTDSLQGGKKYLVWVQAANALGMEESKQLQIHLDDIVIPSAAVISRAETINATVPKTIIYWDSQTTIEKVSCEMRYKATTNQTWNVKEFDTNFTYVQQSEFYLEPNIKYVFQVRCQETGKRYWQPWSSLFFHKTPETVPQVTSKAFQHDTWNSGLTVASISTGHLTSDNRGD
Assay: IL-23α/IL-12β and IL-23R binding assay (TR-FRET/HTRF)
Conditions: inhibition of the binding of IL-23α/IL-12β to IL-23R, TR-FRET; both proteins 0.3 nM
Protocol: 1. IL-23α/IL-12β and IL-23R binding assay
Compounds were tested for their inhibition on the binding of IL-23α/IL-12β to IL-23R by the TR-FRET method. Solutions of proteins IL-23α/IL-12β (ACRO, Cat# ILB-H52W5) and IL-23R (ACRO, Cat# ILR-H82F3) were prepared in reaction buffer PPI (PerkinElmer, Cat# 61DB10RDF). The final concentrations of IL-23α/IL-12β and IL-23R in the reaction mixture were both 0.3 nM. Positive reference Guselkumab was 3-fold diluted from an initial concentration of 30 nM, with 10 doses. 0.1 µL of the positive reference diluted in the reaction buffer was delivered to a 384-well plate (Grenier, Cat# 784075) by the acoustic liquid delivery technique (Echo 655), and the plate was centrifuged at 1000 rpm for 1 minute. 2.5 µL of IL-23α/IL-12β solution was transferred into the 384-well reaction plate, and the plate was centrifuged at 1000 rpm for 1 minute, and incubated at 25°C for 60 minutes. 2.5 µL of IL-23R solution was transferred into the 384-well reaction plate, and the plate was centrifuged at 1000 rpm for 1 minute. 5 µL of Streptavidin-Tb cryptate and Anti 6HIS-d2 detection mixture was transferred into the 384-well reaction plate, and the plate was centrifuged at 1000 rpm for 1 minute, and incubated at 25°C for 60 minutes. Finally, the HTRF signal (Ratio 665/620 nm) was read with a BMG high-throughput drug screening multifunctional microplate reader. IC50 values were obtained by nonlinear regression curve fitting using GraphPad Prism software.

Row | SMILES | IC50
1 | CC(=O)NCCCC[C@@H]1NC(=O)[C@H](Cc2c[nH]c3c(C)cccc23)NC(=O)[C@H]([C@@H](C)O)NC(=O)[C@H](CC(N)=O)NC(=O)C(NC(C)=O)CCCC[C@@H](C(=O)N[C@@H](Cc2ccc(OCCN)cc2)C(=O)N[C@@H](Cc2ccc3ccccc3c2)C(=O)NC2(C(=O)N[C@@H](CCC(=O)O)C(=O)N[C@@H](CC(N)=O)C(=O)N[C@@H](Cc3cccnc3)C(=O)N(C)CC(N)=O)CCOCC2)NC1=O (single isomer, unassigned) [Compound 44-1] | 0.145 nM
2 | CC(=O)NCCCC[C@@H]1NC(=O)[C@H](Cc2c[nH]c3c(C)cccc23)NC(=O)[C@H]([C@@H](C)O)NC(=O)[C@H](CC(N)=O)NC(=O)C(NC(C)=O)CCCC[C@@H](C(=O)N[C@@H](Cc2ccc(OCCN)cc2)C(=O)N[C@@H](Cc2ccc3ccccc3c2)C(=O)NC2(C(=O)N[C@@H](CCC(=O)O)C(=O)N[C@@H](CC(N)=O)C(=O)N[C@@H](Cc3cccnc3)C(=O)N(C)CC(N)=O)CCOCC2)NC1=O (single isomer, unassigned) [Compound 44-2] | 0.134 nM
3 | CC(=O)N[C@H]1CSCc2cc3cc(c2)CSC[C@@H](C(=O)N[C@@H](CC(N)=O)C(=O)N[C@@H](Cc2cccnc2)C(=O)N(C)CC(N)=O)NC(=O)C2(CCS(=O)(=O)CC2)NC(=O)[C@H](Cc2ccc4ccccc4c2)NC(=O)[C@H](Cc2ccc(OCCN)c4c2CCC4)NC(=O)[C@H](CSC3)NC(=O)[C@H](CCC(N)=O)NC(=O)[C@H](Cc2c[nH]c3c(C)cccc23)NC(=O)[C@H]([C@@H](C)O)NC(=O)[C@H](Cc2c[nH]cn2)NC1=O [Compound 19] (Ac-CHT[Trp(7-Me)]QC[Phe(4-OC2H4NH2,2,3-(CH2)3)][2Nal][Thp(SO2)]CN[3Pal][Sar]-NH2; linker 1-6-10 via TBMB) | 0.248 nM
4 | C[C@@H](O)[C@@H]1NC(=O)[C@H](Cc2c[nH]cn2)NC(=O)[C@@H](NC(=O)COCCOCCNC(=O)COCCOCCNC(=O)CC[C@H](NC(=O)CCCCCCCCCCCCCCCCC(=O)O)C(=O)O)C(C)(C)SSC(C)(C)[C@@H](C(=O)N[C@@H](Cc2ccc(OCCN)c3c2CCC3)C(=O)N[C@@H](Cc2ccc3ccccc3c2)C(=O)NC2(C(=O)N[C@@H](CCC(=O)O)C(=O)N[C@@H](CC(N)=O)C(=O)N[C@@H](Cc3cccnc3)C(=O)N(C)CC(N)=O)CCS(=O)(=O)CC2)NC(=O)[C@H](CCC(N)=O)NC(=O)[C@H](Cc2c[nH]c3c(C4CC4)cccc23)NC1=O [Compound 20] ({C18 diacid-γGlu-AEEA-AEEA}-[Pen]HT[Trp(7-cPr)]Q[Pen][Phe(4-OC2H4NH2,2,3-(CH2)3)][2Nal][Thp(SO2)]EN[3Pal][Sar]-NH2; disulfide 1-6) | 0.116 nM
5 | CC(=O)N[C@@H]1C(=O)N[C@@H](Cc2c[nH]cn2)C(=O)N[C@@H]([C@@H](C)O)C(=O)N[C@@H](Cc2c[nH]c3c(C4CC4)cccc23)C(=O)N[C@@H](CCCCNC(=O)COCCOCCNC(=O)COCCOCCNC(=O)CC[C@H](NC(=O)CCCCCCCCCCCCCCCCC(=O)O)C(=O)O)C(=O)N[C@H](C(=O)N[C@@H](Cc2ccc(OCCN)c3c2CCC3)C(=O)N[C@@H](Cc2ccc3ccccc3c2)C(=O)NC2(C(=O)N[C@@H](CCC(=O)O)C(=O)N[C@@H](CC(N)=O)C(=O)N[C@@H](Cc3cccnc3)C(=O)N(C)CC(N)=O)CCS(=O)(=O)CC2)C(C)(C)SSC1(C)C [Compound 21] (Ac-[Pen]HT[Trp(7-cPr)]K([AEEA-AEEA-γGlu-C18 diacid])[Pen][Phe(4-OC2H4NH2,2,3-(CH2)3)][2Nal][Thp(SO2)]EN[3Pal][Sar]-NH2; disulfide 1-6) | 0.248 nM
6 | CC(=O)N[C@H]1CNC(=O)NC[C@@H](C(=O)N[C@@H](Cc2ccc(OCCN)cc2)C(=O)N[C@@H](Cc2ccc3ccccc3c2)C(=O)NC2(C(=O)N[C@@H](CCC(=O)O)C(=O)N[C@@H](CC(N)=O)C(=O)N[C@@H](Cc3cccnc3)C(=O)N(C)CC(N)=O)CCOCC2)NC(=O)[C@H](CCC(N)=O)NC(=O)[C@H](Cc2c[nH]c3c(C)cccc23)NC(=O)[C@H]([C@@H](C)O)NC(=O)[C@H](Cc2c[nH]cn2)NC1=O [Compound 23] (Ac-[Dap]HT[Trp(7-Me)]Q[Dap][AEF][2Nal][Thp]EN[3Pal][Sar]-NH2; linker 1-6 via CO) | 0.161 nM
7 | CC(=O)N[C@H]1CSCc2cccc(c2)CSC[C@@H](C(=O)N[C@@H](Cc2ccc(OCCN)c3c2CCC3)C(=O)N[C@@H](Cc2ccc3ccccc3c2)C(=O)NC2(C(=O)N[C@@H](CCC(=O)O)C(=O)N[C@@H](CC(N)=O)C(=O)N[C@@H](Cc3cccnc3)C(=O)N(C)CC(N)=O)CCS(=O)(=O)CC2)NC(=O)[C@H](CCC(N)=O)NC(=O)[C@H](Cc2c[nH]c3c(C)cccc23)NC(=O)[C@H]([C@@H](C)O)NC(=O)[C@H](Cc2c[nH]cn2)NC1=O [Compound 30] (Ac-CHT[Trp(7-Me)]QC[Phe(4-OC2H4NH2,2,3-(CH2)3)][2Nal][Thp(SO2)]EN[3Pal][Sar]-NH2; linker 1-6 via mXylylene) | 0.46 nM
8 | CC(=O)N[C@H]1CSCc2ccccc2CSC[C@@H](C(=O)N[C@@H](Cc2ccc(OCCN)c3c2CCC3)C(=O)N[C@@H](Cc2ccc3ccccc3c2)C(=O)NC2(C(=O)N[C@@H](CCC(=O)O)C(=O)N[C@@H](CC(N)=O)C(=O)N[C@@H](Cc3cccnc3)C(=O)N(C)CC(N)=O)CCS(=O)(=O)CC2)NC(=O)[C@H](CCC(N)=O)NC(=O)[C@H](Cc2c[nH]c3c(C)cccc23)NC(=O)[C@H]([C@@H](C)O)NC(=O)[C@H](Cc2c[nH]cn2)NC1=O [Compound 31] (Ac-CHT[Trp(7-Me)]QC[Phe(4-OC2H4NH2,2,3-(CH2)3)][2Nal][Thp(SO2)]EN[3Pal][Sar]-NH2; linker 1-6 via oXylylene) | 0.258 nM
9 | CC(=O)N[C@H]1CSCc2nc3nc(n2)CSC[C@@H](C(=O)N[C@@H](CC(N)=O)C(=O)N[C@@H](Cc2cccnc2)C(=O)N(C)CC(N)=O)NC(=O)C2(CCS(=O)(=O)CC2)NC(=O)[C@H](Cc2ccc4ccccc4c2)NC(=O)[C@H](Cc2ccc(OCCN)c4c2CCC4)NC(=O)[C@H](CSC3)NC(=O)[C@H](CCC(N)=O)NC(=O)[C@H](Cc2c[nH]c3c(C)cccc23)NC(=O)[C@H]([C@@H](C)O)NC(=O)[C@H](Cc2c[nH]cn2)NC1=O [Compound 33] (Ac-CHT[Trp(7-Me)]QC[Phe(4-OC2H4NH2,2,3-(CH2)3)][2Nal][Thp(SO2)]CN[3Pal][Sar]-NH2; linker 1-6-10 via X3) | 0.395 nM
10 | COCCOCCOCCOCCOCCOCC(=O)N[C@@H]1C(=O)N[C@@H](Cc2c[nH]cn2)C(=O)N[C@@H]([C@@H](C)O)C(=O)N[C@@H](Cc2c[nH]c3c(C4CC4)cccc23)C(=O)N[C@@H](CCC(N)=O)C(=O)N[C@H](C(=O)N[C@@H](Cc2ccc(OCCN)c3c2CCC3)C(=O)N[C@@H](Cc2ccc3ccccc3c2)C(=O)NC2(C(=O)N[C@@H](CCC(=O)O)C(=O)N[C@@H](CC(N)=O)C(=O)N[C@@H](Cc3cccnc3)C(=O)N(C)CC(N)=O)CCS(=O)(=O)CC2)C(C)(C)SSC1(C)C [Compound 35] (X5-[Pen]HT[Trp(7-cPr)]Q[Pen][Phe(4-OC2H4NH2,2,3-(CH2)3)][2Nal][Thp(SO2)]EN[3Pal][Sar]-NH2; disulfide 1-6) | 0.063 nM
11 | CC(=O)N[C@@H](CCC(=O)NCCOCCOCC(=O)NCCOCCOCC(=O)N[C@@H]1C(=O)N[C@@H](Cc2c[nH]cn2)C(=O)N[C@@H]([C@@H](C)O)C(=O)N[C@@H](Cc2c[nH]c3c(C4CC4)cccc23)C(=O)N[C@@H](CCC(N)=O)C(=O)N[C@H](C(=O)N[C@@H](Cc2ccc(OCCN)c3c2CCC3)C(=O)N[C@@H](Cc2ccc3ccccc3c2)C(=O)NC2(C(=O)N[C@@H](CCC(=O)O)C(=O)N[C@@H](CC(N)=O)C(=O)N[C@@H](Cc3cccnc3)C(=O)N(C)CC(N)=O)CCS(=O)(=O)CC2)C(C)(C)SSC1(C)C)C(=O)O [Compound 36] (Ac-[γGlu][AEEA][AEEA][Pen]HT[Trp(7-cPr)]Q[Pen][Phe(4-OC2H4NH2,2,3-(CH2)3)][2Nal][Thp(SO2)]EN[3Pal][Sar]-NH2; disulfide 4-9) | 0.042 nM
12 | CC(=O)NCCCC[C@@H]1NC(=O)[C@H](Cc2c[nH]c3c(C)cccc23)NC(=O)[C@H]([C@@H](C)O)NC(=O)[C@H](CC(N)=O)NC(=O)C(NC(C)=O)C2(CC2)SSC(C)(C)[C@@H](C(=O)N[C@@H](Cc2ccc(OCCN)cc2)C(=O)N[C@@H](Cc2ccc3ccccc3c2)C(=O)NC2(C(=O)N[C@@H](CCC(=O)O)C(=O)N[C@@H](CC(N)=O)C(=O)N[C@@H](Cc3cccnc3)C(=O)N(C)CC(N)=O)CCOCC2)NC1=O (stereo partly drawn) [Compound 37] (Ac-[X1]NT[Trp(7-Me)]K(Ac)[Pen][AEF][2Nal][Thp]EN[3Pal][Sar]-NH2; disulfide 1-6 (inferred)) | 0.05 nM
